The record followed here is patent US20240360139A1, “BLOOD BRAIN BARRIER PENETRATING SELECTIVE INHIBITORS OF ROCK2 PROTEIN KINASES AND USES THEREOF” (GENOSCO Inc., priority 2023, published 2024).

For experiment [1], the target named is T1, Recombinant ROCK1 (amino acids 1-477) (Homo sapiens, UniProt Q13464).
T1 construct: Recombinant ROCK1 (amino acids 1-477)
The experiment is described as follows: ROCK inhibition assay, LANCE Ultra TR-FRET (ROCK1). The experiment is classed as biochemical. The note with it: 1 mM of ATP. The procedure: (§1) Kinase IC50 was determined through an in vitro assay based on LANCE Ultra TR-FRET (Time-Resolved Fluorescence Resonance Energy Transfer) homogeneous technologies method 5 (Perkin Elmer). Recombinant ROCK1 (amino acids 1-477) and ROCK2 (amino acids 5-554) proteins were purchased from Carna Biosciences and SignalChem. Compound activities were measured by Envision and IC50s were calculated. The assays were performed in white LUMITRAC™ 200 96 well half-area microplates from Greiner Bio-One. The kinase reaction buffer consisted of 50 mM HEPES pH 7.5, 1 mM EGTA, 10 mM MgCl2, 2 mM DTT and 0.01% 10 Tween-20. Kinases were incubated with 50 nM (ULight-CREBtide) substrate in the presence of 1 mM (ROCK1) or 1 mM (ROCK2) of ATP. The kinase reaction was carried out for 1 hour before addition of a stopping buffer to a final of 10 mM EDTA and 0.6 nM of LANCE Ultra Europium anti-phospho-CREB (Ser133) antibody (PerkinElmer TRF0200) in LANCE detection buffer. All assay incubations were performed at room temperature, and the microplates were sealed with polyester film during that time. The reaction was incubated for 1 hour, and the signal was read in Envision in TR-FRET mode (excitation at 320 nm and emission at 615/665 nm).
(§2) As used herein, a way to describe potency of inhibitory activity (nM) is a value of inhibitory activity at 50% (IC50).
Background: Time-resolved FRET reads energy transfer from a long-lived donor to a nearby acceptor.

Experiment [2] deals with T2, Recombinant ROCK2 (amino acids 5-554) (Homo sapiens, UniProt O75116).
T2 construct: ROCK2 (amino acids 5-554)
T2 sequence (O75116 5-554): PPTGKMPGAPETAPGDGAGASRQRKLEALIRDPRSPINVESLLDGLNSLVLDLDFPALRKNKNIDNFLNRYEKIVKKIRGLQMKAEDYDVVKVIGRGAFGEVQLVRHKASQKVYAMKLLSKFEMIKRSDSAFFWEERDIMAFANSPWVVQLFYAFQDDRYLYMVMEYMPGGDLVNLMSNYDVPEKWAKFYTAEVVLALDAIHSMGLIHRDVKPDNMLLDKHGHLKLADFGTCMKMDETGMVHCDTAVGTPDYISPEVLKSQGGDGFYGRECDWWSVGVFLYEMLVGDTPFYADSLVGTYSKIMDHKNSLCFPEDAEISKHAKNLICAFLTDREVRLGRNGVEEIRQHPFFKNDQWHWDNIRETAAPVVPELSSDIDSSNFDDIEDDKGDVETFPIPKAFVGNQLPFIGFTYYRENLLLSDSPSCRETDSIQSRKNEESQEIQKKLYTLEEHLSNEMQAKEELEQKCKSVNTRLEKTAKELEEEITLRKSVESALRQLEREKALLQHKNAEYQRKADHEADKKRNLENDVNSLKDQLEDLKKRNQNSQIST
Briefly: ROCK inhibition assay, LANCE Ultra TR-FRET (ROCK2). The experiment is classed as biochemical. The note with it: 1 mM of ATP. The procedure: as §1, §2

Where a name gives a salt, the structure may show the parent alone. Where only a bound is given, the exact number is not on record here.

For orientation: IC50 means the concentration that inhibits the measured activity by half.

T1 sequence (Q13464 1-477): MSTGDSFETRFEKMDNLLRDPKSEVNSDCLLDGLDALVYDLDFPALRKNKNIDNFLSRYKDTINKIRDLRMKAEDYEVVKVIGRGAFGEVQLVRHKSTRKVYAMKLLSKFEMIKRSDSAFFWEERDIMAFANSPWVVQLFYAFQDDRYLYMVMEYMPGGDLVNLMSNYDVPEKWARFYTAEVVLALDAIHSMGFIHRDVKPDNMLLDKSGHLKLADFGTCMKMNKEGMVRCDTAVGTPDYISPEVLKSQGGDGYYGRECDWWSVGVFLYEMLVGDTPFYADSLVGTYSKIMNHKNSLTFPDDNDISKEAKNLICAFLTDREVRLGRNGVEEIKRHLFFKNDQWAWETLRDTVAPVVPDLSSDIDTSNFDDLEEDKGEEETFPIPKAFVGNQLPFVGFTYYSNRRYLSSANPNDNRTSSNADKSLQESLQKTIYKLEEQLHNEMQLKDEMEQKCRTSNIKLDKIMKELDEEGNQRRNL

On to `CN1CC[C@@H]1Cn1cc(C(=O)C2COc3ccc(Cl)cc3C2)c2ccc(-c3cn[nH]c3F)cc21` (stereo partly drawn) [Compound 1-57], for which the IC50 in experiment [1] was > 501 nM; in experiment [2], 201 to 500 nM.
In the case of `COc1ccc2c(c1)C[C@@H](C(=O)c1cn(CCN(C)C)c3cc(-c4c[nH]nc4Cl)ccc13)CO2` [Compound 5-8], the IC50 is > 501 nM in experiment [1] and < 20 nM in experiment [2].
With `COc1ccc2c(c1)CC(C(=O)c1cn(CC3(N)CC3)c3cc(-c4cn[nH]c4F)ccc13)CO2` (stereo not drawn) [Compound 4-6], the IC50 in experiment [1] was 21 to 200 nM; in experiment [2], < 20 nM.
Consider `Cc1n[nH]cc1-c1ccc2c(C(=O)C3COc4ccc(Cl)cc4C3)cn(CCN(C)C)c2c1` (stereo not drawn) [Compound 5-1, (6-chlorochroman-3-yl)-[1-[2-(dimethylamino)ethyl]-6-(3-methyl-1H-pyrazol-4-yl)indol-3-yl]methanone], for which the IC50 in experiment [1] was > 501 nM; in experiment [2], 201 to 500 nM.
For the compound `O=C(c1cn(C[C@H]2CCN2)c2cc(-c3cn[nH]c3Cl)ccc12)C1COc2ccc(Cl)cc2C1` (stereo partly drawn) [Compound 1-39], the half-maximal inhibitory concentration (IC50) is > 501 nM in experiment [1] and 21 to 200 nM in experiment [2].
With `COc1[nH]ncc1-c1cc2c(cn1)c(C(=O)C1COc3ccc(Cl)cc3C1)cn2CCN(C)C` (stereo not drawn) [Compound 1-2, (6-chlorochroman-3-yl)(1-(2-(dimethylamino)ethyl)-6-(5-methoxy-1H-pyrazol-4-yl)-1H-pyrrolo[3,2-c]pyridin-3-yl)methanone dihydrochloride], the values for the IC50 in experiment [1] and in experiment [2] were > 501 nM and 21 to 200 nM, respectively.
In the same order, the values of `NC1(Cn2cc(C(=O)C3COc4ccc(Cl)cc4C3)c3ccc(-c4cn[nH]c4F)cc32)CC1` (stereo not drawn) [Compound 4-5] are < 20 nM and < 20 nM.
Regarding `NCCn1cc(C(=O)C2COc3ccc(Cl)cc3C2)c2cnc(-c3c[nH]nc3Cl)cc21` (stereo not drawn) [Compound 2-1, [1-(2-aminoethyl)-6-(3-chloro-1H-pyrazol-4-yl)pyrrolo[3,2-c]pyridin-3-yl]-(6-chlorochroman-3-yl) methanone], the IC50 in experiment [1] was 21 to 200 nM; in experiment [2], < 20 nM.
In the case of `CN(C)CCn1nc(C(=O)C2CCOc3ccc(F)cc3C2)c2ccc(-c3c[nH]nc3Cl)cc21` (stereo not drawn) [Compound 5-63], the IC50 in experiment [1] and in experiment [2] was > 501 nM throughout.
As to `COc1[nH]ncc1-c1ccc2c(C(=O)C3COc4ccc(Cl)cc4C3)cn(CC3CN(C)C3)c2c1` (stereo not drawn) [Compound 1-44], the IC50 in experiment [1] was > 501 nM; in experiment [2], < 20 nM.
In the same order, the values of `COc1n[nH]cc1-c1ccc2c(C(=O)C3COc4ccc(Cl)cc4C3)cn(CCN3CCC3)c2c1` (stereo not drawn) [Compound 3-4, [1-[2-(azetidin-1-yl)ethyl]-6-(3-methoxy-1H-pyrazol-4-yl)indol-3-yl]-(6-chlorochroman-3-yl)methanone] are > 501 nM and 201 to 500 nM.
With `CN(C)CCn1cc(C(=O)C2COc3ccc(Cl)cc3O2)c2ccc(-c3c[nH]nc3Cl)cc21` (stereo not drawn) [Compound 5-17], the IC50 in experiment [1] and in experiment [2] was > 501 nM in each case.
As to `Cc1nocc1-c1ccc2c(C(=O)C3COc4ccc(F)cc4C3)cn(CCN(C)C)c2c1` (stereo not drawn) [Compound 5-26], the IC50 in experiment [1] and in experiment [2] was > 501 nM each time.
For `COc1[nH]ncc1-c1ccc2c(C(=O)C3COc4ccc(Cl)cc4C3)cn(CC3CNC3)c2c1` (stereo not drawn) [Compound 1-22], the IC50 in experiment [1] and in experiment [2] was < 20 nM each time.
Regarding `COc1ccc2c(c1)CC(C(=O)c1cn(CCN(C)C)c3nc(-c4c[nH]nc4Cl)ccc13)CO2` (stereo not drawn) [Compound 1-13], the figures for the IC50 in experiment [1] and in experiment [2] were > 501 nM and < 20 nM, respectively.
In the same order, the values of `CN(C)CCn1cc(C(=O)C2COc3ccc(Cl)cc3C2)c2ccc(-c3cn[nH]c3F)nc21` (stereo not drawn) [Compound 1-16] are > 501 nM and > 501 nM.
In the case of `CN(C)CCn1cc(C(=O)C2COc3ccc(Cl)cc3C2)c2ccc(-c3c[nH]nc3Cl)cc21` (stereo not drawn) [Compound 1-17], the IC50 in experiment [1] was > 501 nM; in experiment [2] it was 21 to 200 nM.
`CN1CC(Cn2cc(C(=O)C3COc4ccc(Cl)cc4C3)c3ccc(-c4cn[nH]c4F)cc32)C1` (stereo not drawn) [Compound 1-43]: the IC50 in experiment [1] was 21 to 200 nM; in experiment [2] it was < 20 nM.
In the case of `O=C(c1cn(C2CNC2)c2cc(-c3c[nH]nc3Cl)ncc12)C1COc2ccc(F)cc2C1` (stereo not drawn) [Compound 1-15], the IC50 is > 501 nM in experiment [1] and 21 to 200 nM in experiment [2].
With `COc1ccc2c(c1)C[C@H](C(=O)c1cn(C[C@H]3CCN3CCF)c3cc(-c4c[nH]nc4Cl)ccc13)CO2` [Compound 5-9], the IC50 in experiment [1] was 201 to 500 nM; in experiment [2], < 20 nM.
With `COc1n[nH]cc1-c1ccc2c(C(=O)C3COc4ccc(Cl)cc4C3)cn(C[C@@H](C)N)c2c1` (stereo partly drawn) [Compound 2-6], the results for the IC50 in experiment [1] and in experiment [2] were 21 to 200 nM and < 20 nM, respectively.
On to `COc1n[nH]cc1-c1ccc2c(C(=O)C3COc4ccc(Cl)cc4C3)cn(C[C@H](C)N)c2c1` (stereo partly drawn) [Compound 2-9], for which the IC50 was 201 to 500 nM in experiment [1] and < 20 nM in experiment [2].
For `CCN(CCF)CCn1cc(C(=O)[C@@H]2COc3ccc(OC)cc3C2)c2ccc(-c3c[nH]nc3Cl)cc21` [Compound 5-12] the same measures were > 501 nM and 21 to 200 nM.
For `CN(C)CCn1cc(C(=O)C2COc3ccc(F)cc3C2)c2ccc(-c3c[nH]nc3Cl)nc21` (stereo not drawn) [Compound 1-10] the same measures were > 501 nM and 21 to 200 nM.
On to `CN(C)CCn1cc(C(=O)[C@@H]2COc3ccc(Cl)cc3C2)c2ccc(-c3cn[nH]c3F)cc21` [Compound 1-25], for which the IC50 is 201 to 500 nM in experiment [1] and 21 to 200 nM in experiment [2].
In the case of `COc1n[nH]cc1-c1ccc2c(C(=O)C3COc4ccc(F)cc4C3)cn(CCCN(C)C)c2c1` (stereo not drawn) [Compound 3-6], the IC50 in experiment [1] was > 501 nM; in experiment [2], 21 to 200 nM.
On to `CCN(CC)CCn1cc(C(=O)[C@@H]2COc3ccc(OC)cc3C2)c2ccc(-c3cn[nH]c3Cl)cc21` [Compound 3-20], for which the IC50 in experiment [1] was 201 to 500 nM; in experiment [2], < 20 nM.
As for `COc1ccc2c(c1)C[C@H](C(=O)c1cn(CCN(CCF)CCF)c3cc(-c4c[nH]nc4Cl)ccc13)CO2` [Compound 5-15], the IC50 is > 501 nM in experiment [1] and 21 to 200 nM in experiment [2].
For `C[C@@H](Cn1cc(C(=O)C2COc3ccc(Cl)cc3C2)c2ccc(-c3cn[nH]c3Cl)cc21)N(C)C` (stereo partly drawn) [Compound 2-12, (6-chlorochroman-3-yl)-[6-(5-chloro-1H-pyrazol-4-yl)-1-[(2S)-2-(dimethylamino)propyl]indol-3-yl]methanone] the same measures were > 501 nM and < 20 nM.
As for `COc1ccc2c(c1)CC(C(=O)c1cn(C[C@H]3CCN3)c3cc(-c4cn[nH]c4Cl)ccc13)CO2` (stereo partly drawn) [Compound 1-35], the IC50 is 21 to 200 nM in experiment [1] and < 20 nM in experiment [2].
Regarding `CCN(CC)CCn1cc(C(=O)C2COc3ccc(OC)cc3C2)c2ccc(-c3cn[nH]c3F)cc21` (stereo not drawn) [Compound 3-22], the IC50 in experiment [1] was 201 to 500 nM; in experiment [2], < 20 nM.
Regarding `CNCCn1cc(C(=O)C2COc3ccc(F)cc3C2)c2ccc(-c3c[nH]nc3Cl)cc21` (stereo not drawn) [Compound 3-5], the results for the IC50 in experiment [1] and in experiment [2] were 201 to 500 nM and < 20 nM, respectively.
For `CN(C)CCn1nc(C(=O)[C@@H]2COc3ccc(F)cc3C2)c2ccc(-c3c[nH]nc3Cl)cc21` [Compound 5-53], the figures for the 50% inhibitory concentration (IC50) in experiment [1] and in experiment [2] were 201 to 500 nM and < 20 nM, respectively.
For `CN(C)CCn1cc(C(=O)C2COc3ccccc3O2)c2ccc(-c3cn[nH]c3)cc21` (stereo not drawn) [Compound 5-2], the IC50 in experiment [1] was > 501 nM; in experiment [2], 201 to 500 nM.
Take `CCN1CC[C@@H]1Cn1cc(C(=O)[C@@H]2COc3ccc(OC)cc3C2)c2ccc(-c3cn[nH]c3Cl)cc21` [Compound 1-59]: the IC50 in experiment [1] is > 501 nM; in experiment [2], < 20 nM.
`CN(C)CCn1nc(C(=O)C2COc3ccc(Cl)cc3C2)c2ccc(-c3c[nH]nc3F)cc21` (stereo not drawn) [Compound 5-48]: the IC50 is > 501 nM in experiment [1] and < 20 nM in experiment [2].
In the same order, the values of `CNCCn1cc(C(=O)C2COc3ccc(F)cc3C2)c2cnc(-c3c[nH]nc3Cl)cc21` (stereo not drawn) [Compound 3-2] are > 501 nM and 21 to 200 nM.
As to `COc1ccc2c(c1)CC(C(=O)c1cn(C[C@H]3CCN3C)c3cc(-c4cn[nH]c4OC)ccc13)CO2` (stereo partly drawn) [Compound 1-49], the IC50 in experiment [1] was > 501 nM; in experiment [2], 21 to 200 nM.
On to `COc1ccc2c(c1)CC(C(=O)c1cn(C[C@@H]3CCN3C)c3cc(-c4cn[nH]c4Cl)ccc13)CO2` (stereo partly drawn) [Compound 1-46], for which the IC50 in experiment [1] was > 501 nM; in experiment [2], 21 to 200 nM.
On to `COc1[nH]ncc1-c1ccc2c(C(=O)[C@@H]3COc4ccc(F)cc4C3)cn(CCN(C)C)c2c1` [Compound 5-38], for which the IC50 in experiment [1] was > 501 nM; in experiment [2], < 20 nM.
Turning to `CN(C)CCn1nc(C(=O)C2COc3ccc(F)cc3C2)c2ccc(-c3c[nH]nc3F)cc21` (stereo not drawn) [Compound 5-55], the IC50 in experiment [1] is 201 to 500 nM; in experiment [2] it was < 20 nM.
In the same order, the values of `COc1ccc2c(c1)CC(C(=O)c1cn(C[C@H]3CCN3)c3cc(-c4cn[nH]c4OC)ccc13)CO2` (stereo partly drawn) [Compound 1-42] are 201 to 500 nM and < 20 nM.
